# Source: PubChem BioAssay AID1552 (Sanford-Burnham Center for Chemical Genomics, 2009)
# Activity calls are given as the source filed them. How the calls were made is not given here.
# Target: Ubiquitin-conjugating enzyme E2 N (Homo sapiens) (UniProt P61088)
# Test: NMR detection of UBE2N ligand binding – biophysical, purified protein (AID 1552)
# Details: NMR binding to purified UBE2N
# Chain of Ubiquitin-conjugating enzyme E2 N (Homo sapiens) (P61088 whole entry, looked up): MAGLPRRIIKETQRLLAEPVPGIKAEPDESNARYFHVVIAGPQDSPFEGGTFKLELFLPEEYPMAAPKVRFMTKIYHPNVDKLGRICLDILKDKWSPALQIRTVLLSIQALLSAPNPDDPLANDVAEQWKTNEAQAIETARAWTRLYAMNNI
row,Structure (SMILES),Kd
1,COC1=CC(C)[C@@H]2C[C@H]3OC(=O)C[C@H]4C(C)=C(OC)C(=O)C([C@@]34C)[C@@]2(C)C1=O (some centres undefined),> 4 mM (inactive)
2,O=C(O)C1(O)C[C@@H](O)C(O)[C@H](O)C1 (some centres undefined),> 4 mM (inactive)
3,c1cc2n(c1)CCNC2c1ccncc1 (centres undefined),> 4 mM (inactive)
4,CC(C)(C)Cc1nc(-c2ccccn2)no1,> 4 mM (inactive)
5,O=C(NC(=S)NC1CCSC1=O)c1ccco1 (centres undefined),> 4 mM (inactive)
6,CC(=O)N1CCC(NC2CCCCCC2)CC1,> 4 mM (inactive)
7,C/C=C/C(=O)Nc1ccc(NC(C)=O)cc1,> 4 mM (inactive)
8,Cc1[nH]c2ccccc2c1Cc1n[nH]c(=S)n1C,> 4 mM (inactive)
9,OCc1cc(-c2cccs2)on1,> 4 mM (inactive)
10,Cc1[nH]n(-c2ccccc2)c(=O)c1[N+](=O)[O-],> 4 mM (inactive)
11,Nc1cncc(C(=O)O)c1,> 4 mM (inactive)
12,Cc1nc(-c2ccccc2)sc1CO,> 4 mM (inactive)
13,NC(=O)CN1CC(c2ccccc2)CC1=O (centres undefined),> 4 mM (inactive)
14,O=C(O)C1CC(=O)N(CCc2ccc(Cl)cc2)C1 (centres undefined),> 4 mM (inactive)
15,Cc1nnc(Nc2ccc(S(N)(=O)=O)cc2)[nH]c1=O,> 4 mM (inactive)
16,O=c1cc(-c2ccccc2)oc2c(O)c(O)ccc12,> 4 mM (inactive)
17,Nc1ccc2c(C(F)(F)F)cc(=O)oc2c1,> 4 mM (inactive)
18,OCc1c[nH]c2ccccc12,> 4 mM (inactive)
19,COc1ccccc1-c1c(C)nn2c(C)c(C(C)=O)cnc12,> 4 mM (inactive)
20,CSc1nc(O)cc(=O)[nH]1,> 4 mM (inactive)
21,NC1=NC(=O)C(CC(=O)Nc2ccccc2F)S1 (centres undefined),> 4 mM (inactive)
22,O=C(O)c1ccc2ccccc2n1,> 4 mM (inactive)
23,CN(C)C(=S)Nc1ccccc1N1CCOCC1,> 4 mM (inactive)
24,Cc1ccc(-c2nnn(CC(=O)O)n2)cc1,> 4 mM (inactive)

row,Structure (SMILES),Kd
1,Cc1ccc(C)c(C(=O)NCc2ccncc2)c1,> 4 mM (inactive)
2,CC1(C)Oc2ccc3ccc(=O)oc3c2CC1O (centres undefined),> 4 mM (inactive)
3,NS(=O)(=O)c1ccc(NC(=O)C2CC2)cc1,> 4 mM (inactive)
4,O=C(Nc1cccc(Cl)c1)c1cnn2cccnc12,> 4 mM (inactive)
5,Nc1nc(CSc2ncn(-c3ccccc3)n2)cs1,> 4 mM (inactive)
6,NCc1ccc2c(c1)OCO2,> 4 mM (inactive)
7,CC(=O)OCC(OC(C)=O)C(OC(C)=O)C(OC(C)=O)C(OC(C)=O)C(COC(C)=O)OC(C)=O (centres undefined),> 4 mM (inactive)
8,COC(=O)CSc1nc(N)cc(=O)[nH]1,> 4 mM (inactive)
9,OCc1ccc(-c2cccs2)s1,> 4 mM (inactive)
10,CN1C2CC[C@@H]1CC(OC(=O)[C@H](CO)c1ccccc1)C2 (some centres undefined),> 4 mM (inactive)
11,Cn1nnc2c(Cl)ncnc21,> 4 mM (inactive)
12,Cc1c(/C=N\n2cnnc2)c2ccccc2n1C,> 4 mM (inactive)
13,COc1cc(C(=S)N2CCCC2)cc(Cl)c1O,> 4 mM (inactive)
14,CC1(C)CC[C@]2(C(=O)O)CC[C@]3(C)C(=CCC4[C@@]5(C)CC[C@H](O)[C@@](C)(CO)C5CC[C@]43C)C2C1 (some centres undefined),> 4 mM (inactive)
15,CC(=O)NC1C(=O)Nc2c(C)cc(C)cc21 (centres undefined),> 4 mM (inactive)
16,C[C@@H]1CC[C@@]2(OC1)O[C@H]1CC3C4CC[C@H]5C[C@@H](O)CC[C@]5(C)C4CC[C@]3(C)[C@H]1[C@@H]2C (some centres undefined),> 4 mM (inactive)
17,CC(=O)OC[C@H]1O[C@@H](Oc2cc(OC(C)=O)c3c(=O)cc(-c4ccc(OC(C)=O)cc4)oc3c2)[C@H](OC(C)=O)[C@@H](OC(C)=O)[C@@H]1OC(C)=O,> 4 mM (inactive)
18,Cc1nc2[nH]onc2c2nccc(=O)c12,> 4 mM (inactive)
19,Fc1cccc(Cl)c1CN1CCCNCC1,> 4 mM (inactive)
20,COc1cc(S(=O)(=O)Nc2cccnc2)ccc1F,> 4 mM (inactive)
21,CS(=O)(=O)c1ccccc1C(=O)Nc1nccs1,> 4 mM (inactive)
22,CC(=O)c1cccc(NC(=O)N2CCc3ccccc3C2)c1,> 4 mM (inactive)
23,OCc1ccc(-n2ccnc2)cc1,> 4 mM (inactive)
24,CC(C)=CCc1c(O)cc(C)oc1=O,> 4 mM (inactive)

row,Structure (SMILES),Kd
1,COc1ccc([C@H]2COc3c(ccc(O)c3OC)C2)c(OC)c1O,> 4 mM (inactive)
2,CCOCC(=O)N1CCc2ccccc21,> 4 mM (inactive)
3,O=C(O)Cc1csc(-c2ccccc2)n1,> 4 mM (inactive)
4,C=C1CCC(=O)C(C)CCC2C1CC2(C)C (centres undefined),> 4 mM (inactive)
5,O=C(c1ccco1)N1C(=O)c2cccc3cccc1c23,> 4 mM (inactive)
6,CC1CN(Cc2ccccn2)CCC1=O (centres undefined),> 4 mM (inactive)
7,CC1=C(C(=O)Nc2ccccc2)SCCO1,> 4 mM (inactive)
8,Cn1c([O-])c([N+](C)(C)C)c(=O)n(C)c1=O,> 4 mM (inactive)
9,O=C(O)c1cccc2nsnc12,> 4 mM (inactive)
10,CCN1CCN(CCCNc2ncnc3nc[nH]c23)CC1,> 4 mM (inactive)
11,NC(=O)CSc1ccc2nnc(-c3cccs3)n2n1,> 4 mM (inactive)
12,O=C(O)CSCc1ccc(Cl)cc1,> 4 mM (inactive)
13,c1ccc(C2NCCc3[nH]cnc32)cc1 (centres undefined),> 4 mM (inactive)
14,Cc1ccc2c(c1)=C(c1sc(N)nc1O)C(=O)N=2,> 4 mM (inactive)
15,O=C(O)c1ccc2c(c1)OCCO2,> 4 mM (inactive)
16,Cc1ccc(CCNc2ccccc2)c[n+]1[O-],> 4 mM (inactive)
17,CC(NC(=O)c1cccnc1)c1ccc2c(c1)OCO2 (centres undefined),> 4 mM (inactive)
18,C=C1C([C@]2(C)C(CC(=O)OC)[C@@](C)(COC(C)=O)OC(=O)C[C@@H]2OC(C)=O)[C@@H](OC=O)[C@H](OC(=O)C(OC(C)=O)C(C)CC)[C@@]2(C)[C@H](c3ccoc3)CC(=O)C12O (some centres undefined),> 4 mM (inactive)
19,COc1nc(N2CCOCC2)nc(N)c1[N+](=O)[O-],> 4 mM (inactive)
20,OC1CCN(Cc2ccc[nH]2)CC1,> 4 mM (inactive)
21,Cc1ncc(C[n+]2csc3ccccc32)c(N)n1,> 4 mM (inactive)
22,NCc1ccc(S(N)(=O)=O)cc1,> 4 mM (inactive)
23,Nc1ccc(-n2cncn2)cc1,> 4 mM (inactive)
24,CC(=O)Nc1ccncc1NC(C)=O,> 4 mM (inactive)

row,Structure (SMILES),Kd
1,NC12CC3CC(C1)CC(O)(C3)C2,> 4 mM (inactive)
2,COc1cc(O)c2c(c1)C(=O)c1cc(C)cc(O)c1C2=O,> 4 mM (inactive)
3,O=C(Nc1cccc(O)c1)c1ccccc1,> 4 mM (inactive)
4,COc1ccc(S(=O)(=O)N2CCC(C(N)=O)CC2)cc1,> 4 mM (inactive)
5,CC1/C(=N/O)C[C@@H]2C[C@H]1C2(C)C (some centres undefined),> 4 mM (inactive)
6,Cc1cc(C)nc(/N=C(/N)N2CCC(C(N)=O)CC2)n1,> 4 mM (inactive)
7,Cc1cc(=O)c2c(O)c(C)c(O)cc2o1,> 4 mM (inactive)
8,CCOc1ccc(-c2c(=O)n(O)c3ccccc3[n+]2[O-])cc1,> 4 mM (inactive)
9,CCNC(=O)CC1Nc2ccccc2NC1=O (centres undefined),> 4 mM (inactive)
10,O=C(Nc1nccs1)c1cccnc1,> 4 mM (inactive)
11,CC(C)NC(=O)c1cc(=O)n(C)c(=O)n1C,> 4 mM (inactive)
12,CC(=O)Nc1cc(C(N)=O)cc(C(N)=O)c1,> 4 mM (inactive)
13,CN(C)N1C(=O)C2C3C=CC(O3)C2C1=O (centres undefined),> 4 mM (inactive)
14,CC(NC(=O)C1CCCCC1)C(=O)NC1=NCCS1 (centres undefined),> 4 mM (inactive)
15,CN1CCC(NC(=O)c2cnccn2)CC1,> 4 mM (inactive)
16,CC(C)=CCc1c(O)cc2oc(C)cc(=O)c2c1O,> 4 mM (inactive)
17,O=S(=O)(O)c1nc2ccccc2[nH]1,> 4 mM (inactive)
18,Cc1cn2c(-c3cccnc3)nnc2s1,> 4 mM (inactive)
19,Cc1noc(-c2ccccc2)c1CO,> 4 mM (inactive)
20,Cc1ccc(-c2nn(C)c(=O)c3ccccc23)cc1CO,> 4 mM (inactive)
21,CCCc1ncc(C(O)c2cccc3ccccc23)n1C (centres undefined),> 4 mM (inactive)
22,O=c1c(O)cc([C@H]2Oc3cc(O)cc(O)c3C[C@H]2O)cc2c([C@H]3Oc4cc(O)cc(O)c4C[C@H]3O)cc(O)c(O)c12,> 4 mM (inactive)
23,O=C(O)c1ccc2[nH]c3c(c2c1)CSCC3,> 4 mM (inactive)
24,Nc1nnc(Cc2ccc(Cl)cc2)s1,> 4 mM (inactive)

row,Structure (SMILES),Kd
1,Nc1cccc(CC(=S)N2CCOCC2)c1,> 4 mM (inactive)
2,CN1CCN(c2ccc(N)cc2)CC1,> 4 mM (inactive)
3,COc1cccc2onc(N)c12,> 4 mM (inactive)
4,OCc1ccc(N2CCOCC2)cc1,> 4 mM (inactive)
5,O=S(=O)(Cc1ccc(Cl)cc1)N1CCCC1,> 4 mM (inactive)
6,O=C(O)c1cc(F)cc2c1OCOC2,> 4 mM (inactive)
7,COc1cc2nc[nH]c(=O)c2cc1OC,> 4 mM (inactive)
8,CC1CCN(C(=S)c2ccccc2O)CC1,> 4 mM (inactive)
9,CCOC(=O)c1c(C)nc2cc(C)ccn12,> 4 mM (inactive)
10,CCOc1ccc(Cl)cc1S(=O)(=O)N1CCCC1,> 4 mM (inactive)
11,Cc1ccc(S(=O)(=O)/N=C2\NC(=O)CS2)cc1,> 4 mM (inactive)
12,O=C(O)c1cccc(N2C(=O)C3CC=CCC3C2=O)c1 (centres undefined),> 4 mM (inactive)
13,CCc1ccccc1NC(=O)c1cnccn1,> 4 mM (inactive)
14,COC(=O)CCC(C)C1CCC2C3CCC4C[C@H](O)CC[C@]4(C)C3C[C@H](O)[C@]12C (some centres undefined),> 4 mM (inactive)
15,CCn1nnc2c(NCc3ccccn3)ncnc21,> 4 mM (inactive)
16,COC(=O)c1ccc2nccnc2c1,> 4 mM (inactive)
17,Cc1cccc(NC(=O)c2ccc(=O)[nH]n2)c1,> 4 mM (inactive)
18,CS(=O)(=O)Nc1nnc(Cc2ccccc2)s1,> 4 mM (inactive)
19,Cc1nn2c(-c3ccncc3)nnc2c2ccccc12,> 4 mM (inactive)
20,Cc1cc(O)c2c(c1)C(=O)c1cccc(O)c1C2=O,> 4 mM (inactive)
21,O=C(Nc1ccon1)c1cccc(Cl)c1,> 4 mM (inactive)
22,O=c1c2ccccc2[nH]c2ncccc12,> 4 mM (inactive)
23,COc1ccc(C(=O)NCC(=O)O)cc1,> 4 mM (inactive)
